Literature values as cited in US9044383B1, “Compounds and methods for drug delivery via a human nail” (priority 2013, dated 2015).

Legend:
overweight and obese men = conditions: taken orally
obesity in subjects = conditions: applied topically on the skin

## C=C[C@@]1(C)CC(=O)[C@]2(O)[C@@]3(C)[C@@H](O)CCC(C)(C)[C@@H]3[C@H](O)[C@H](OC(C)=O)[C@@]2(C)O1 [forskolin, 7-beta-acetoxy-8,13-epoxy-1-alpha, 6-beta, 9-alpha-trihydroxylabd-14-en-1′-one]
Organic solvents such as ethanol, chloroform, and dimethyl surfoxide
  solubility in organic solvents: soluble
Water with 2% ethanol, first dissolved in ethanol or dimethyl surfoxide at 5 mg/mL, then diluted with water
  solubility in water (with 2% ethanol): up to 0.2 mm
Overweight and obese men
  effectiveness as a weight loss aid: favorable results
Obesity in subjects
  decreasing obesity: favorable results
